How the values were obtained:
B. subtilis 168 [1] = experiment: fitness (endpoint OD595 vs no drug) (fraction); higher = more growth
Summary of the method: (§1)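 Bacterial growth was followed in 384-well plates seeded at OD595 0.01, with 30 µl per well, or 55 µl for S. pneumoniae, in TSB, LB Lennox or CY at 37 °C. OD595 was read every 30 min for 14 h, and each reading had the first reading subtracted as background. Fitness is the background-corrected optical density at entry into stationary phase divided by the robust mean of the no-drug control wells. This ratio is capped at 1.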

S. aureus Newman [2] = experiment: as above
Summary of the method: as §1

S. pneumoniae D39V [3] = experiment: as above
Summary of the method: as §1

B. subtilis 168 [4] = experiment: Bliss interaction score (quartile over a dose matrix) (fitness difference); higher = more antagonism (negative = synergy)
Summary of the method: (§2)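 Each OD595 reading at entry into stationary phase was scaled to the robust mean of the untreated wells on its plate, with a ceiling of 1. These ratios define fitness, and single-drug fitness was inferred from combinations. The Bliss score compares observed fitness with the product-based expectation and is reported as quartiles across all replicate types, technical, biological and donor/recipient.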

S. aureus DSM 20231 = experiment: as above
Summary of the method: as §2

S. aureus Newman [5] = experiment: as above
Summary of the method: as §2

S. pneumoniae D39V [6] = experiment: as above
Summary of the method: as §2
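For Bliss interaction score (quartile over a dose matrix) in this document: first quartile when negative (synergy) and third quartile when positive (antagonism).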

CNC(C)C1CCC(N)C(OC2C(N)CC(N)C(OC3OCC(C)(O)C(NC)C3O)C2O)O1 (stereo not drawn) [Gentamicin] + Cc1cc(NS(=O)(=O)c2ccc(N)cc2)no1 [Sulfamethoxazol]
one replicate, main component drawn
Conditions | fitness
B. subtilis 168 [1], first compound 0.0625 µg/mL, partner 0.5 µg/mL | 0.848
B. subtilis 168 [1], first compound 0.125 µg/mL, partner 0.5 µg/mL | 0.975
B. subtilis 168 [1], first compound 0.25 µg/mL, partner 0.5 µg/mL | 0.864
S. aureus Newman [2], first compound 0.375 µg/mL, partner 1 µg/mL | ≥ 1
S. aureus Newman [2], first compound 0.375 µg/mL, partner 2 µg/mL | 0.979
S. aureus Newman [2], first compound 0.375 µg/mL, partner 4 µg/mL | ≥ 1
S. aureus Newman [2], first compound 0.75 µg/mL, partner 1 µg/mL | 0.974
S. aureus Newman [2], first compound 0.75 µg/mL, partner 2 µg/mL | 0.926
S. aureus Newman [2], first compound 0.75 µg/mL, partner 4 µg/mL | ≥ 1
S. aureus Newman [2], first compound 1 µg/mL, partner 8 µg/mL | ≥ 1
S. aureus Newman [2], first compound 1.5 µg/mL, partner 1 µg/mL | ≥ 1
S. aureus Newman [2], first compound 1.5 µg/mL, partner 2 µg/mL | 0.975
S. aureus Newman [2], first compound 1.5 µg/mL, partner 4 µg/mL | 0.981
S. aureus Newman [2], first compound 2 µg/mL, partner 8 µg/mL | 0.975
S. aureus Newman [2], first compound 4 µg/mL, partner 2 µg/mL | 0.899
S. aureus Newman [2], first compound 4 µg/mL, partner 4 µg/mL | 0.691
S. aureus Newman [2], first compound 4 µg/mL, partner 8 µg/mL | 0.852

fitness, main component drawn
Conditions | partner 1 µg/mL | partner 2 µg/mL | partner 4 µg/mL
B. subtilis 168 [1], first compound 0.0625 µg/mL | 0.904 | 0.902 | 0.906
B. subtilis 168 [1], first compound 0.25 µg/mL | – | – | 0.0278
S. aureus Newman [2], first compound 0.5 µg/mL | 0.948 | 0.936 | 0.981
S. aureus Newman [2], first compound 1 µg/mL | ≥ 1 | ≥ 1 | 0.999
S. aureus Newman [2], first compound 2 µg/mL | 0.98 | 0.986 | 1
S. pneumoniae D39V [3], first compound 2 µg/mL | 0.942 | 0.942 | 0.962
S. pneumoniae D39V [3], first compound 4 µg/mL | 0.973 | 0.977 | 0.967
S. pneumoniae D39V [3], first compound 8 µg/mL | 0.978 | 0.968 | 0.951

main component drawn
Conditions | Bliss interaction score
B. subtilis 168 [4] | 0.128
S. aureus DSM 20231 | 0.0736
S. aureus Newman [5] | -0.0274
S. pneumoniae D39V [6] | 0.0873

CC1=C(C(=O)O)N2C(=O)[C@@H](NC(=O)[C@H](N)c3ccccc3)[C@H]2SC1 [Cephalexin] + Cc1cc(NS(=O)(=O)c2ccc(N)cc2)no1 [Sulfamethoxazol]
fitness
Conditions | first compound 0.125 µg/mL | first compound 0.25 µg/mL | first compound 0.5 µg/mL | first compound 1 µg/mL
B. subtilis 168 [1], partner 1 µg/mL | 0.951 | 0.924 | 0.895 | –
B. subtilis 168 [1], partner 2 µg/mL | 0.904 | 0.937 | 0.902 | –
B. subtilis 168 [1], partner 4 µg/mL | 0.955 | 0.929 | 0.945 | –
S. aureus Newman [2], partner 1 µg/mL | – | ≥ 1 | 0.988 | 1
S. aureus Newman [2], partner 2 µg/mL | – | ≥ 1 | 0.979 | 0.983
S. aureus Newman [2], partner 4 µg/mL | – | 0.999 | ≥ 1 | ≥ 1

fitness, one replicate
Conditions | first compound 0.125 µg/mL | first compound 0.25 µg/mL | first compound 0.5 µg/mL | first compound 1 µg/mL | first compound 2 µg/mL | first compound 4 µg/mL
B. subtilis 168 [1], partner 0.5 µg/mL | – | 0.987 | ≥ 1 | ≥ 1 | – | –
B. subtilis 168 [1], partner 1 µg/mL | – | – | – | 0.861 | – | –
B. subtilis 168 [1], partner 2 µg/mL | – | – | – | 0.809 | – | –
S. aureus Newman [2], partner 2 µg/mL | – | – | – | – | ≥ 1 | –
S. aureus Newman [2], partner 4 µg/mL | – | – | – | – | ≥ 1 | –
S. aureus Newman [2], partner 8 µg/mL | – | – | 0.944 | ≥ 1 | ≥ 1 | –
S. pneumoniae D39V [3], partner 1 µg/mL | 0.92 | 0.925 | 0.933 | 0.678 | 0.0509 | 0
S. pneumoniae D39V [3], partner 2 µg/mL | 0.961 | 0.937 | 0.979 | 0.717 | 0.165 | 0.0786
S. pneumoniae D39V [3], partner 4 µg/mL | 0.963 | 0.972 | 0.954 | 0.685 | 0.209 | 0.013

Conditions | Bliss interaction score
B. subtilis 168 [4] | 0.0517
S. aureus DSM 20231 | 0.059
S. aureus Newman [5] | -0.021
S. pneumoniae D39V [6] | 0.0504

CNC(C)C1CCC(N)C(OC2C(N)CC(N)C(OC3OCC(C)(O)C(NC)C3O)C2O)O1 (stereo not drawn) [Gentamicin] + CCN(CC)CCOC(=O)c1ccc(N)cc1 [Procaine]
fitness, main component drawn
Conditions | partner 85.5 µg/mL | partner 171 µg/mL | partner 342 µg/mL
B. subtilis 168 [1], first compound 0.0625 µg/mL | 0.89 | 0.872 | 0.871
B. subtilis 168 [1], first compound 0.25 µg/mL | 0.0903 | 0.0388 | 0.109
S. aureus Newman [2], first compound 0.5 µg/mL | – | 0.975 | 0.925
S. aureus Newman [2], first compound 1 µg/mL | – | ≥ 1 | 0.99
S. aureus Newman [2], first compound 2 µg/mL | – | ≥ 1 | 0.944
S. pneumoniae D39V [3], first compound 2 µg/mL | ≥ 1 | 0.981 | 0.968
S. pneumoniae D39V [3], first compound 4 µg/mL | ≥ 1 | 0.977 | 0.944
S. pneumoniae D39V [3], first compound 8 µg/mL | 0.938 | 0.965 | 0.935

fitness, S. aureus Newman [2], one replicate, main component drawn
Conditions | first compound 0.375 µg/mL | first compound 0.75 µg/mL | first compound 1.5 µg/mL
partner 85.5 µg/mL | ≥ 1 | ≥ 1 | ≥ 1
partner 171 µg/mL | ≥ 1 | ≥ 1 | 0.984
partner 342 µg/mL | ≥ 1 | ≥ 1 | ≥ 1

main component drawn
Conditions | Bliss interaction score
B. subtilis 168 [4] | -0.101
S. aureus DSM 20231 | 0.0726
S. aureus Newman [5] | 0.0373
S. pneumoniae D39V [6] | 0.099

CNC(C)C1CCC(N)C(OC2C(N)CC(N)C(OC3OCC(C)(O)C(NC)C3O)C2O)O1 (stereo not drawn) [Gentamicin] + COc1ccc(C[C@H](N)C(=O)N[C@H]2[C@@H](O)[C@H](n3cnc4c(N(C)C)ncnc43)O[C@@H]2CO)cc1 [Puromycin]
main component drawn
Conditions | fitness
B. subtilis 168 [1], first compound 0.0625 µg/mL, partner 0.39 µg/mL | 0.889
B. subtilis 168 [1], first compound 0.25 µg/mL, partner 0.39 µg/mL | 0.0531
B. subtilis 168 [1], first compound 0.25 µg/mL, partner 0.78 µg/mL | 0.0448
B. subtilis 168 [1], first compound 0.25 µg/mL, partner 1.56 µg/mL | 0.0402
S. aureus Newman [2], first compound 0.5 µg/mL, partner 0.39 µg/mL | 0.979
S. aureus Newman [2], first compound 0.5 µg/mL, partner 0.78 µg/mL | ≥ 1
S. aureus Newman [2], first compound 0.5 µg/mL, partner 1.56 µg/mL | ≥ 1
S. aureus Newman [2], first compound 1 µg/mL, partner 0.39 µg/mL | ≥ 1
S. aureus Newman [2], first compound 1 µg/mL, partner 0.78 µg/mL | ≥ 1
S. aureus Newman [2], first compound 1 µg/mL, partner 1.56 µg/mL | ≥ 1
S. aureus Newman [2], first compound 2 µg/mL, partner 0.39 µg/mL | 0.994
S. aureus Newman [2], first compound 2 µg/mL, partner 0.78 µg/mL | ≥ 1
S. aureus Newman [2], first compound 2 µg/mL, partner 1.56 µg/mL | ≥ 1
S. pneumoniae D39V [3], first compound 2 µg/mL, partner 1 µg/mL | 0.955
S. pneumoniae D39V [3], first compound 2 µg/mL, partner 2 µg/mL | 0.915
S. pneumoniae D39V [3], first compound 4 µg/mL, partner 1 µg/mL | 0.984
S. pneumoniae D39V [3], first compound 8 µg/mL, partner 1 µg/mL | 0.906
S. pneumoniae D39V [3], first compound 8 µg/mL, partner 4 µg/mL | 0.19

fitness, S. aureus Newman [2], one replicate, main component drawn
Conditions | first compound 0.375 µg/mL | first compound 0.75 µg/mL | first compound 1.5 µg/mL
partner 0.39 µg/mL | ≥ 1 | ≥ 1 | 0.973
partner 0.78 µg/mL | ≥ 1 | ≥ 1 | ≥ 1
partner 1.56 µg/mL | ≥ 1 | ≥ 1 | ≥ 1

main component drawn
Conditions | Bliss interaction score
B. subtilis 168 [4] | -0.204
S. aureus DSM 20231 | -0.278
S. aureus Newman [5] | 0.0455
S. pneumoniae D39V [6] | -0.289
